According to BindingDB's records for doi:10.1016/s0960-894x(00)00664-8 (Kyoto University, 2001):
pEC50: −log10 of the molar value. Where a SMILES comes first, the peptide text is derived from it. Bridges are numbered along the chain shown (N, C = ends). [ ]: non-standard residue; d: D form. Gly(2-naphthyl) = N[C@H](C(=O)O)c1ccc2ccccc2c1; Cit = NC(=O)NCCC[C@H](N)C(=O)O

Assay: Effective concentration for antagonistic activity by inhibition of T-tropic strain of HIV-1 through its specific binding to a chemokine receptor

- pEC50: 9.74
SMILES: NCCCC[C@@H]1NC(=O)[C@H](CCCN=C(N)N)NC(=O)[C@H](Cc2ccc(O)cc2)NC(=O)[C@@H](NC(=O)[C@@H](NC(=O)[C@H](CCCN=C(N)N)NC(=O)[C@@H](N)CCCN=C(N)N)c2ccc3ccccc3c2)CSSC[C@@H](C(=O)N[C@@H](CCCN=C(N)N)C(=O)O)NC(=O)[C@H](CCCNC(N)=O)NC(=O)[C@H](CCCN=C(N)N)NC(=O)[C@H](Cc2ccc(O)cc2)NC(=O)[C@@H]2CCCN2C(=O)[C@@H](CCCCN)NC1=O [Compound T140] (H-RR[Gly(2-naphthyl)]CYRK[dK]PYR[Cit]CR-OH; disulfide 4-13)
